Here are results for 1 compound from patent publication US20260258025A1, “INHIBITORS OF TDP-43 AND TAU AGGREGATION” (Aquinnah Pharmaceuticals, inc., priority 2023, published 2026).

Format in all cases: cell-based
In test [1] the test system is insoluble TDP-43. Nature of the test: Cell fractionation and immunoblot of TDP-43 in MG-132 challenged human motor neurons. Particulars: MG-132 1 μM, vs unstressed. As for the experimental part:
Cell culture and differentiation of iPS Cells into motor neurons. Pluripotent stem cells were grown with mTeSR Plus medium on tissue culture dishes coated with Matrigel, and maintained in 5% CO2 incubators at 37° C. Stem cells were passaged as small aggregates of cells after 1 mM EDTA treatment. […] was added to the cultures for 16-24 h after dissociation to prevent cell death. The iP11NA iPS cell line was acquired from ALSTEM. This cell line was generated from pre-made footprint-free human iPS cells with DOX inducible Ngn2 that has been stably integrated into the human AAVS1 “Safe Harbor” site, and provides a convenient means to differentiate human iPS cells into neurons rapidly and efficiently. Motor neuron differentiation was achieved using a modified 5-day strategy. […]
For analysis of TDP-43 cellular distribution, d14 motor neurons were lysed with Thermo Subcellular Protein Fractionation Kit for cultured cells and processed according to the manufacturer's instructions. […] Fluorescent secondary antibodies were used for band detection and the Kaleidoscope precision plus protein ladder for size estimation. iBright FL1500 imaging system and software were used to quantitate protein band signal. […]
In general terms: Immunoblotting shows a protein as a band on a membrane.

Test [2] has as its system TDP-43 splicing function. Briefly: qRT-PCR of TDP-43 sentinel transcripts (STMN2, ELAVL3, PFKP) in MG-132 challenged human motor neurons. The note with it: MG-132 1 μM, human motor neurons, relative to unstressed. As for the experimental part:
(§1) Cell culture and differentiation of iPS Cells into motor neurons. Pluripotent stem cells were grown with mTeSR Plus medium on tissue culture dishes coated with Matrigel, and maintained in 5% CO2 incubators at 37° C. Stem cells were passaged as small aggregates of cells after 1 mM EDTA treatment. […] was added to the cultures for 16-24 h after dissociation to prevent cell death. The iP11NA iPS cell line was acquired from ALSTEM. This cell line was generated from pre-made footprint-free human iPS cells with DOX inducible Ngn2 that has been stably integrated into the human AAVS1 “Safe Harbor” site, and provides a convenient means to differentiate human iPS cells into neurons rapidly and efficiently. Motor neuron differentiation was achieved using a modified 5-day strategy.
(§2) This approach relies on neural induction through small molecule inhibition of SMAD signaling, accelerated neural differentiation through forced Ngn2 expression, and motor neuron patterning through the activation of retinoic acid and Sonic Hedgehog signaling pathways. In brief, pluripotent stem cells were dissociated to single cells using accutase and plated at a density of 80,000 cells per cm^2 on Matrigel-coated culture plates with mTeSR Plus medium supplemented with ROCK inhibitor (10 μM Y-27632, ATCC). When cells reached 50% confluency, medium was changed to differentiation medium BrainPhys medium supplemented with N2-A, SM1, […]. This time point was defined as day 0 (d0) of motor neuron differentiation. Treatment with small molecules was carried out as follows: 2 μg/mL Doxycyline, 10 μM SB431542, 100 nM LDN-193189, […] and 1 μM Smoothend agonist and 10 uM Edu. The full list of materials and their descriptions is included below in Table 5.
Total RNA was isolated from d14 motor neurons for qRT-PCR assays using TaqMan™ Fast Advanced Cells-to-CT™ Kit according to manufacturer's instructions. 7500 neurons per well of 96-well culture were routinely used for processing. qRT-PCR was then performed using multiplex assays from IDT using PrimeTime™ Gene Expression Master Mix (IDT) on a QuantStudio6Pro system. Quantitative levels for all genes assayed were normalized using GAPDH expression. […] Primers and probes used in this study are in Table 5.
To this end, we first examined whether proteasome inhibition, which triggers TDP-43 nuclear depletion, also leads to splicing defects associated with TDP-43 loss-of function. For comparison, we also treated human motor neurons with puromycin, which recruits TDP-43 to stress granules in the cytoplasm. We chose to analyze several transcripts that have relevant connections to ALS biology including STMN26,12, PFKP19, and ELAVL320,21. We used quantitative reverse transcription-polymerase chain reaction (qRT-PCR) to validate that in MG-132-treated motor neurons these transcripts were altered like in ALS patients.
Using this method, we next obtained RNA from independent motor neuron biological replicates after proteasome inhibition and Compound 183 treatment to determined by qRT-PCR the relative abundance of these transcripts. […] A dose-responsive effect was further tested for Compound 183 using qRT-PCR in this model. […] Collectively, the data support the notion that Compound 183 promotes TDP-43 nuclear function under proteotoxic stress.
(In general: Real-time PCR tracks product formation cycle by cycle.)

Test [3] relates to TDP-43 nuclear localization. Nature of the test: TDP-43 localization analysis by immunofluorescence in MG-132 challenged iP11NA human motor neurons. Particulars: 1 μM MG-132 for 20 hours, human motor neurons, vs unstressed. As for the experimental part: as §1
as §2, with “The full list of materials and their descriptions is included below in Table 5.” left out
A dose-responsive effect was further tested for Compound 183 using quantitative imaging analysis on the CellInsight™ CX7 High Content Analysis Platform. By comparing the intensity of TDP-43 staining in the nucleus and cytoplasm of human motor neurons, we determined Compound 183 could maintain nuclear TDP-43 from 370 nM-10 μM in the proteasome challenged motor neurons (see FIG. 2).

Where a SMILES comes first, the peptide text is derived from it. The star is where a group is joined. Cbz = O=C(OCc1ccccc1)*

For the compound `CC(C)C[C@@H](C=O)NC(=O)[C@H](CC(C)C)NC(=O)[C@H](CC(C)C)NC(=O)OCc1ccccc1` [MG-132, reference compound] (Cbz-Leu-Leu-Leu-aldehyde), the “effect of stressor on TDP-43 distribution between fractions (immunoblot)” value in test [1] is reported as “significant change in TDP-43 distribution from the soluble, nuclear compartment to the insoluble fraction”. Further, in test [2], the “effect of stressor on cryptic splicing of STMN2, ELAVL3, PFKP (qPCR)” value is “strong induction of cryptic splicing”; the “effect of stressor on normal transcript levels (qPCR)” value is “decreased levels for normal STMN2 as well as the cryptic exon-disrupted splice junctions in PFKP and ELAVL3”. Also, in test [3], the “effect of stressor on nuclear TDP-43 staining (immunofluorescence)” value is “induced a loss of nuclear TDP-43 staining”.
